One assay deals with CD36 (Rattus norvegicus (Rat), UniProt Q07969). The assay can be described thus: CD36 receptor covalent photolabelling binding assay, competition with [125I]Tyr-Bpa-Ala-hexarelin on rat cardiac membranes. Conditions: for binding activity/affinity at CD36 in words: compared with parent peptide GHRP-6 or hexarelin. As for the experimental part:
The hearts from Sprague Dawley rats (300 g-325 g) from Charles River, used as a source of cardiac membranes, were prepared as follows: the heart was washed with ice-cold saline, and fatty and connective tissue was removed. The tissue was cut into small pieces with scissors and placed in a Sorvall centrifuge tube containing 5 ml/g of fresh tissue of Buffer A (10 mM NaHCO3, 5 mM NaN3, 10 μM Pefabloc, 0.1 μM Aprotinin, 1 μM Pepstatin A, 1 μM Leupeptin, pH 7.0). The suspension was homogenized with a Polytron at low speed, 3×15 sec. The homogenate was centrifuged at 8 700×g for 20 min and the supernatant was put on ice. The pellet was resuspended and homogenized with a Glass-teflon Potter by 5 strokes. The homogenate was centrifuged at 8 700×g for 10 min and this supernatant was combined with the first supernatant. The supernatant fluid was centrifuged at 35 000×g for 20 min, yielding a second pellet fraction that was suspended thoroughly in a glass homogenizer with a Teflon pestle in 20 ml/g of fresh tissue of Buffer B (20 mM Tris-maleate, 0.6M KCl, pH 6.8). The resulting suspension was centrifuged again at 35 000×g for 60 min. The third pellet fraction was resuspended thoroughly in a glass homogenizer with a Teflon pestle in 20 ml/g of fresh tissue of Buffer C (10 mM Tris/HCl buffer pH 7.4) followed with another centrifugation at 35 000×g for 60 min. The harvested precipitate was then suspended in a small volume (1-2 ml/g of fresh tissue) of 50 mM Tris/HCl buffer pH 7.4) containing 2 mM EGTA. The resulting membrane preparation was frozen at −80° C. Protein concentration was determined with bicinchoninic acid (BCA) method, using BSA as standard.
The iodination procedure was performed in the darkness. […] The reaction was started by adding 5 ul (3 nmol) of H2O2. The incubation was carried out at 22° C. for 5 min. The addition of H2O2 was repeated twice with 5 min incubation each time. The reaction was stopped with the addition of 1.4 ml of 0.1% TFA. The iodinated peptide was purified on a reverse-phase Vydac C18 column with a 60 min linear gradient (1 ml/min) from 20% to 50% acetonitrile (90%) in 0.1% TFA (10%).
Nonspecific binding was defined as binding not displaced by 50 μM corresponding peptide. All peptide containing solutions were diluted in Buffer B. Buffer A and B were degassed under vacuum, and used in capped tubes in order to minimize lipid peroxydation. Before the incubation period, all tubes were put under a low flow of nitrogen. All material was kept on ice and the binding assay was performed in darkness. After an incubation period of 60 min at 22° C. […] After centrifugation at 12 000×g for 15 minutes, the pellets were resuspended in 150 μl of sample buffer (62 mM Tris-HCl, pH 6.8, 2% SDS, 10% glycerol, 15% 2-mercapto-ethanol, and 0.05% bromophenol blue), and boiled for 5 min prior to being subjected to electrophoresis. Proteins (200 μg/100 μl) were separated on 7.5% SDS-PAGE (45 V overnight). The gels resulting from SDS/PAGE were fixed, colored in Coomassie Brilliant Blue R-250, dried, exposed to a storage phosphor intensifying screen (Amersham Biosciences), and analysed by using a Typhoon PhosphorImager (Amersham Biosciences) and ImageQuant 5.0 software to establish competition curves. Protein bands were quantified by densitometry. The covalent binding signal of 87 kDa was analyzed by densitometry using Typhoon Phospholmager™ (Typhoon, Amersham Biosciences) and ImageQuant 5.0® software to set competition curves.
Specific binding activities were defined as the ratio of the density of the protein band to that of a non-specific band. Results are expressed as the percentage of the density of the […] to that of the total binding band.

The target of another assay is human GHS-R1a (Homo sapiens (Human), UniProt Q92847). In words: GHS-R1a binding assay, competition with 125I-ghrelin on membranes of LLC-PK1 cells expressing human GHS-R1a. The settings on record: for IC50: Table 5, read-out: IC50 Binding GHS-R1a; for binding affinity for GHS-R1a receptor in words: compared with GHRP-6. As for the experimental part: Rat ghrelin was radio iodinated with Na^125I using the lodo-Beads iodination reagent (Pierce #28665). Briefly, an lodo-bead was incubated with 2 mCi of Na^125I (Amersham) in 100 μL of 50 mM sodium phosphate buffer, pH 7.0 for 5 min at 22° C. The reaction was started by adding 20 nmol of the peptide (1 mM in 0.1 M acetic acid). The tube was incubated for 10 min at 22° C. The iodination was terminated by adding 1 mL of 0.1% TFA. The mono-iodinated peptide was purified by reverse-phase HPLC using a Vydac C18 ([…]) column (30 cm×0.39 cm) in combination with a binary elution system of (A) 0.1% TFA in H2O and (B) 0.1% TFA, 10% H2O, 90% acetonitrile. Fractions of 0.5 mL were collected and analyzed by its radioactive content.
human GHS-R1a, sequence (Q92847 whole entry): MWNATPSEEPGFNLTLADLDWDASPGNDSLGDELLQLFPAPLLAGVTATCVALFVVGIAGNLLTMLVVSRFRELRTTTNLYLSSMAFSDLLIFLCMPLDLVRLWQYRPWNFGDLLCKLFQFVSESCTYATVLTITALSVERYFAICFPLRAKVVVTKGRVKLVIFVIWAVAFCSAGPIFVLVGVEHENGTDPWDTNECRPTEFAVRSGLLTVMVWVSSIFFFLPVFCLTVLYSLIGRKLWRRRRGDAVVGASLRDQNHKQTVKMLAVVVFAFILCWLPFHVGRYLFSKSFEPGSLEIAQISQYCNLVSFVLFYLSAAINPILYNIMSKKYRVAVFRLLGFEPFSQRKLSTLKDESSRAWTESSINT
Cells (1.4×10^6) were plated in 100 mm plates and transfected 24 h later with pCDNA3.1-hGHS-R1a (UMR cDNA Resource Center #GHSR0A0000) following the CaHPO4 precipitation method. Briefly, 40 μg of plasmid DNA was diluted in 500 μL of sterile H2O and added to an equal volume of a 4× CaCl2, pH 7.9 solution (2 mM Tris-HCl, 0.2 mM EDTA, 500 mM CaCl2). The mixture was then added slowly with air bubbles to 1 mL of 2× Hepes-buffered saline, pH 7.1 (50 mM Hepes, 280 mM NaCl, 1.5 mM Na2HPO4). After 30 min at room temperature, 1 mL was distributed evenly over the cells and let overnight. The medium was changed the next morning and the membrane preparation was made two days later.
Cells were washed twice with PBS and once with ice-cold homogenization buffer (50 mM Tris-HCl, pH 7.3, 5 mM MgCl2, 2.5 mM EDTA, 30 μg/ml bacitracin). Cells were scraped and harvested in 1.5 mL tubes. Cells were then lysed by temperature shock with two freeze/thaw cycles in liquid nitrogen. The tubes were centrifuged at 14000 g for 20 min. Pellets were resuspended in homogenization buffer and stored at −80° C. until used. Total protein concentrations were determined with the BCA protein assay kit (Pierce).
Competition experiments were performed by incubating 50 μg of LLC-PK1 membranes expressing human GHS-R1a with 15 fmol of ^125I-Ghrelin and increasing concentrations of unlabeled ghrelin or with increasing concentrations of azapeptides derivatives in 0.5 mL of binding buffer. Bound radiolabelled ligand was separated from free by filtration on Whatman GF/C filters pretreated with a 1% polyethylenimine solution. Filters were washed with 2×3 mL of washing buffer (50 mM Tris-HCl, pH 7.3, 10 mM MgCl2, 2.5 mM EDTA, 0.015% Triton X-100). Filters were counted in a LKB gamma counter. Curves were analyzed using Prism software (GraphPad Software Inc).

Where [1] appears, read: Table 6, read-out: IC50 Binding CD36.
The mark [2] stands for this setting: Table 3, rat cardiac membranes, [125I]Tyr-Bpa-Ala-hexarelin as radioligand, read-out: IC50, binding affinity of aza peptide derivatives towards CD36.

This note sets out measurements from patent US9708370B2, “Azapeptides as CD36 binding compounds” (VALORISATION-RECHERCHE, LIMITED PARTNERSHIP, priority 2007, dated 2017).

SMILES strings stand for the structures. Read-outs that look alike come from different tables or passages of the source. Starred links: 1 amine or outer side, 2 acyl side, 3 side chain; linkers in the order of their positions; H or OH if unused. Non-standard residues stand in square brackets, D forms with d. Residues, ends and D or L forms follow the SMILES beside them. azaTyr = O=C(N(Cc1ccc(O)cc1)N[*:1])[*:2]; X3 = O=C(N(Cc1cccc2ccccc12)N[*:1])[*:2]; azaPhe = O=C(N(Cc1ccccc1)N[*:1])[*:2]; azaLeu = CC(C)CN(N[*:1])C(=O)[*:2]; azaGly = NNC(=O)O

CD36, sequence (Q07969 whole entry): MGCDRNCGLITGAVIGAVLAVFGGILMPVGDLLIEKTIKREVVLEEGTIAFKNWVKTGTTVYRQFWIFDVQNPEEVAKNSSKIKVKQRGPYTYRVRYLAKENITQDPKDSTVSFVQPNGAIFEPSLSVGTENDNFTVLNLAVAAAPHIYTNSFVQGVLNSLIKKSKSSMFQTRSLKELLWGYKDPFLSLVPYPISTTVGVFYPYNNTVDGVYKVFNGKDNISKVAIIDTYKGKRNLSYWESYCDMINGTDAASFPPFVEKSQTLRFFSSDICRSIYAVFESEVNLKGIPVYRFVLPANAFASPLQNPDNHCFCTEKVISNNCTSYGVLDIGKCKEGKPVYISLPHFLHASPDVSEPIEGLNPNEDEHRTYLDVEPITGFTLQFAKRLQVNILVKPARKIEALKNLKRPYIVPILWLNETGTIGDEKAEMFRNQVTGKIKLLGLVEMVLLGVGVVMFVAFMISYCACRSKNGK

In general, IC50 refers to the concentration that inhibits the measured activity by half. Turning to `C[C@H](NC(=O)[C@@H](Cc1ccccc1)NC(=O)[C@H](Cc1c[nH]c2ccccc12)NC(=O)[C@H](C)NC(=O)N(Cc1ccccc1)NC(=O)[C@@H](N)Cc1cnc[nH]1)C(N)=O` [CP-1A (i), His-azaPhe-Ala-Trp-D-Phe-Ala-NH2] (H-H[azaPhe]AW[dF]A-NH2), the results for the IC50 at CD36 (setting [1]), at human GHS-R1a (listed as CP-1A(i)) and on human GHS-R1a were more than 10 µM, more than 10 µM and 51 µM, respectively.
`C[C@H](NC(=O)[C@H](C)NC(=O)N(Cc1ccccc1)NC(=O)[C@@H](N)Cc1cnc[nH]1)C(=O)N[C@H](Cc1ccccc1)C(=O)N[C@@H](CCCCN)C(N)=O` [CP-1A (iii), (D/L)His-azaPhe-Ala-Ala-D-Phe-Lys-NH2] (H-H[azaPhe]AA[dF]K-NH2): the IC50 was 27.6 µM on CD36 (setting [1]) and more than 10 µM at human GHS-R1a.
Turning to `C[C@H](N)C(=O)NN(Cc1ccccc1)C(=O)N[C@@H](C)C(=O)N[C@@H](Cc1c[nH]c2ccccc12)C(=O)N[C@H](Cc1ccccc1)C(=O)N[C@@H](CCCCN)C(N)=O` [CP-1A (iv), Ala-azaPhe-Ala-Trp-D-Phe-Lys-NH2] (H-A[azaPhe]AW[dF]K-NH2), at CD36 (setting [1]), the IC50 was 5.02 µM. Also, the “binding activity/affinity at CD36 in words” value (“binding activity/affinity” below) on CD36 is listed as “without major change”. At human GHS-R1a, the IC50 was more than 10 µM and the “binding affinity for GHS-R1a receptor in words” value is listed as “decreased drastically”.
With `C[C@H](NC(=O)[C@@H](Cc1ccccc1)NC(=O)[C@H](Cc1c[nH]c2ccccc12)NC(=O)[C@H](C)NC(=O)N(Cc1ccc(O)cc1)NC(=O)[C@@H](N)Cc1cnc[nH]1)C(N)=O` [CP-1B (i), His-AzaTyr-Ala-Trp-D-Phe-Ala-NH2] (H-H[azaTyr]AW[dF]A-NH2), the values for the IC50 at CD36 (setting [1]) and on human GHS-R1a were 72.2 µM and more than 10 µM, respectively.
For the molecule `C[C@H](NC(=O)N(Cc1ccc(O)cc1)NC(=O)[C@@H](N)Cc1cnc[nH]1)C(=O)N[C@@H](Cc1c[nH]c2ccccc12)C(=O)N[C@H](C)C(=O)N[C@@H](CCCCN)C(N)=O` [CP-1B (ii), His-azaTyr-Ala-Trp-D-Ala-Lys-NH2] (H-H[azaTyr]AW[dA]K-NH2), the IC50 on CD36 (setting [1]) and at human GHS-R1a was more than 10 µM each time.
In the case of `C[C@H](N)C(=O)NN(Cc1ccc(O)cc1)C(=O)N[C@@H](C)C(=O)N[C@@H](Cc1c[nH]c2ccccc12)C(=O)N[C@H](Cc1ccccc1)C(=O)N[C@@H](CCCCN)C(N)=O` [CP-1B (iv), Ala-AzaTyr-Ala-Trp-D-Phe-Lys-NH2] (H-A[azaTyr]AW[dF]K-NH2), the figures for the IC50 on CD36 (setting [1]) and on human GHS-R1a were 17.4 µM and more than 10 µM, respectively.
As for `C[C@H](N)C(=O)N[C@H](Cc1c[nH]c2ccccc12)C(=O)NNC(=O)N[C@@H](Cc1c[nH]c2ccccc12)C(=O)N[C@H](Cc1ccccc1)C(=O)N[C@@H](CCCCN)C(N)=O` [CP-2A(v), Ala-D-Trp-azaGly-Trp-D-Phe-Lys-NH2] (H-A[dW][azaGly]W[dF]K-NH2), the IC50 at CD36 (setting [1]) was determined as 8.76 µM.
With `CC(C)CN(NC(=O)[C@@H](Cc1c[nH]c2ccccc12)NC(=O)[C@@H](N)Cc1cnc[nH]1)C(=O)N[C@@H](Cc1c[nH]c2ccccc12)C(=O)N[C@H](Cc1ccccc1)C(=O)N[C@@H](C)C(N)=O` [CP-2B (i), His-D-Trp-azaLeu-Trp-D-Phe-Ala-NH2] (H-H[dW][azaLeu]W[dF]A-NH2), the IC50 came out at 9.02 µM at CD36 (setting [1]) and 8.17 µM at human GHS-R1a. In addition, the “binding activity/affinity” value at CD36 is listed as “retained significant activity similar to the parent peptide”.
Regarding `CC(C)CN(NC(=O)[C@@H](Cc1c[nH]c2ccccc12)NC(=O)[C@@H](N)Cc1cnc[nH]1)C(=O)N[C@@H](Cc1c[nH]c2ccccc12)C(=O)N[C@H](C)C(=O)N[C@@H](CCCCN)C(N)=O` [CP-2B (ii), His-D-Trp-azaLeu-Trp-D-Ala-Lys-NH2] (H-H[dW][azaLeu]W[dA]K-NH2), the IC50 at CD36 (setting [1]) is 4.94 µM; on human GHS-R1a, more than 10 µM. Also, the “binding activity/affinity” value on CD36 is “retained significant activity similar to the parent peptide”; at CD36 (listed as CP-2B(ii)), “without major change”. Further, the “binding affinity for GHS-R1a receptor in words” value at human GHS-R1a is “decreased drastically”.
Consider `CC(C)CN(NC(=O)[C@@H](Cc1c[nH]c2ccccc12)NC(=O)[C@@H](N)Cc1cnc[nH]1)C(=O)N[C@@H](C)C(=O)N[C@H](Cc1ccccc1)C(=O)N[C@@H](CCCCN)C(N)=O` [CP-2B (iii), His-D-Trp-azaLeu-Ala-D-Phe-Lys-NH2] (H-H[dW][azaLeu]A[dF]K-NH2), for which the IC50 is 9.66 µM on CD36 (setting [1]) and more than 10 µM on human GHS-R1a. Moreover, the “binding activity/affinity” value at CD36 was “retained significant activity similar to the parent peptide”.
Take `NCCCC[C@H](NC(=O)[C@@H](Cc1ccccc1)NC(=O)[C@H](Cc1c[nH]c2ccccc12)NC(=O)NNC(=O)[C@@H](Cc1c[nH]c2ccccc12)NC(=O)[C@@H](N)Cc1cnc[nH]1)C(N)=O` [DBG188p, His-D-Trp-azaGly-Trp-D-Phe-Lys-NH2] (H-H[dW][azaGly]W[dF]K-NH2): the IC50 at CD36 (setting [2]) came out at 9.61 µM. In addition, the “binding activity/affinity” value at CD36 was “retained significant activity similar to the parent peptide”.
`C[C@H](NC(=O)N(Cc1cccc2ccccc12)NC(=O)[C@@H](N)Cc1cnc[nH]1)C(=O)N[C@@H](Cc1c[nH]c2ccccc12)C(=O)N[C@H](Cc1ccccc1)C(=O)N[C@@H](CCCCN)C(N)=O` [DBG253-10, His-azaNal-1-Ala-Trp-D-Phe-Lys-NH2] (H-H[X3]AW[dF]K-NH2): on CD36 (setting [2]), the IC50 amounted to 1930 µM.
